# Data taken from PubChem BioAssay (NCI).
#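 Cultured in 96-well plates, cells were exposed to test compound for 48 hours across five concentrations. GI50 = concentration required for 50% inhibition of growth. TGI denotes the concentration required for complete inhibition of growth.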
# Key:
# Assay in all cases: NCI anticancer screen, dose series, 48 h
# [1] = system: 786-0 renal
# [2] = system: A498 renal
# [3] = system: A549 NSCLC
# [4] = system: ACHN renal
# [5] = system: BT-549 breast
# [6] = system: CAKI-1 renal
# [7] = system: CCRF-CEM leukemia
# [8] = system: COLO 205 colon
# [9] = system: DU-145 prostate
# [10] = system: EKVX NSCLC
# [11] = system: HCC-2998 colon
# [12] = system: HCT-116 colon
# [13] = system: HCT-15 colon
# [14] = system: HOP-62 NSCLC
# [15] = system: HOP-92 NSCLC
# [16] = system: HT29 colon
# [17] = system: IGROV1 ovarian
# [18] = system: K-562 leukemia
# [19] = system: KM12 colon
# [20] = system: M14 melanoma
# [21] = system: MALME-3M melanoma
# [22] = system: MCF7 breast
# [23] = system: MDA-MB-231 breast
# [24] = system: MDA-MB-435
# [25] = system: MDA-N
# [26] = system: MOLT-4 leukemia
# [27] = system: NCI-H460 lung
# [28] = system: NCI-H522 lung
# [29] = system: NCI/ADR-RES ovarian
# [30] = system: OVCAR-3 ovarian
# [31] = system: OVCAR-5 ovarian
# [32] = system: OVCAR-8 ovarian
# [33] = system: PC-3 prostate
# [34] = system: RPMI-8226 leukemia
# [35] = system: SF-268 CNS
# [36] = system: SF-295 CNS
# [37] = system: SF-539 CNS
# [38] = system: SK-MEL-2 melanoma
# [39] = system: SK-MEL-28 melanoma
# [40] = system: SK-MEL-5 melanoma
# [41] = system: SK-OV-3 ovarian
# [42] = system: SN12C renal
# [43] = system: SNB-19 CNS
# [44] = system: SNB-75 CNS
# [45] = system: SW-620 colon
# [46] = system: T-47D breast
# [47] = system: TK-10 renal
# [48] = system: U251 CNS
# [49] = system: UO-31 renal
# [50] = system: HL-60(TB) leukemia
# [51] = system: LOX IMVI melanoma
# [52] = system: NCI-H226 lung
# [53] = system: NCI-H23 lung
# [54] = system: OVCAR-4 ovarian
# [55] = system: RXF 393 renal
# [56] = system: UACC-257 melanoma
# [57] = system: UACC-62 melanoma
# [58] = system: HS 578T breast
# [59] = system: SR leukemia
smiles,measurement,setting,value
C=CC1(CCC(Br)C(C)(C)Cl)CO1 (centres undefined),TGI,[1],> 10 µM
same,TGI,[2],> 10 µM
same,TGI,[3],> 10 µM
same,TGI,[4],> 10 µM
same,TGI,[5],> 10 µM
same,TGI,[6],> 10 µM
same,TGI,[7],> 10 µM
same,TGI,[8],> 10 µM
same,TGI,[9],> 10 µM
same,TGI,[10],> 10 µM
same,TGI,[11],> 10 µM
same,TGI,[12],> 10 µM
same,TGI,[13],> 10 µM
same,TGI,[14],> 10 µM
same,TGI,[15],> 10 µM
same,TGI,[16],> 10 µM
same,TGI,[17],> 10 µM
same,TGI,[18],> 10 µM
same,TGI,[19],> 10 µM
same,TGI,[20],> 10 µM
same,TGI,[21],> 10 µM
same,TGI,[22],> 10 µM
same,TGI,[23],> 10 µM
same,TGI,[24],> 10 µM
same,TGI,[25],> 10 µM
same,TGI,[26],> 10 µM
same,TGI,[27],> 10 µM
same,TGI,[28],> 10 µM
same,TGI,[29],> 10 µM
same,TGI,[30],> 10 µM
same,TGI,[31],> 10 µM
same,TGI,[32],> 10 µM
same,TGI,[33],> 10 µM
same,TGI,[34],> 10 µM
same,TGI,[35],> 10 µM
same,TGI,[36],> 10 µM
same,TGI,[37],> 10 µM
same,TGI,[38],> 10 µM
same,TGI,[39],> 10 µM
same,TGI,[40],> 10 µM
same,TGI,[41],> 10 µM
same,TGI,[42],> 10 µM
same,TGI,[43],> 10 µM
same,TGI,[44],> 10 µM
same,TGI,[45],> 10 µM
same,TGI,[46],> 10 µM
same,TGI,[47],> 10 µM
same,TGI,[48],> 10 µM
same,TGI,[49],> 10 µM
C/C(=N\O)c1ccc(Nc2c3ccccc3nc3occc23)cc1,TGI,[1],3.3 µM
same,TGI,[2],> 10 µM
same,TGI,[3],> 11.9 µM
same,TGI,[4],> 50 µM
same,TGI,[5],> 12.4 µM
same,TGI,[7],1.89 µM
same,TGI,[8],0.65 µM
same,TGI,[9],> 15.3 µM
same,TGI,[10],> 50 µM
same,TGI,[11],6.35 µM
same,TGI,[12],2.52 µM
same,TGI,[13],4.07 µM
same,TGI,[50],6.95 µM
same,TGI,[14],> 24.1 µM
same,TGI,[15],> 50 µM
same,TGI,[16],0.72 µM
same,TGI,[17],8.59 µM
same,TGI,[18],> 50 µM
same,TGI,[19],27.4 µM
same,TGI,[51],> 50 µM
same,TGI,[20],3.5 µM
same,TGI,[21],> 50 µM
same,TGI,[23],> 39.3 µM
same,TGI,[24],0.0781 µM
same,TGI,[25],> 50 µM
same,TGI,[26],> 21.3 µM
same,TGI,[52],> 25.9 µM
same,TGI,[53],> 10.8 µM
same,TGI,[27],5.77 µM
same,TGI,[28],0.287 µM
same,TGI,[29],0.484 µM
same,TGI,[30],> 50 µM
same,TGI,[54],> 12.2 µM
same,TGI,[31],> 50 µM
same,TGI,[32],7.34 µM
same,TGI,[33],> 50 µM
same,TGI,[34],3.26 µM
same,TGI,[55],0.614 µM
same,TGI,[35],> 43.9 µM
same,TGI,[36],5.26 µM
same,TGI,[37],0.732 µM
same,TGI,[38],3.5 µM
same,TGI,[39],> 18.5 µM
same,TGI,[40],6.77 µM
same,TGI,[41],5.92 µM
same,TGI,[42],> 50 µM
same,TGI,[43],> 50 µM
same,TGI,[44],3.78 µM
same,TGI,[45],> 50 µM
same,TGI,[46],25.7 µM
same,TGI,[47],25.4 µM
same,TGI,[48],> 24.6 µM
same,TGI,[56],> 44.6 µM
same,TGI,[57],16.6 µM
same,TGI,[49],> 50 µM
O=C(Nc1ccccc1)Nc1ccccc1CNc1nc(Nc2ccc(OCCN3CCCC3)cc2)ncc1Cl,GI50,[1],1.11 µM
same,TGI,[1],2.78 µM
same,GI50,[2],1.51 µM
same,TGI,[2],8.54 µM
same,GI50,[3],5.7 µM
same,TGI,[3],21.7 µM
same,GI50,[4],1.85 µM
same,TGI,[4],6.83 µM
same,GI50,[5],5.05 µM
same,TGI,[5],11.4 µM
same,GI50,[6],6.1 µM
same,TGI,[6],12.4 µM
same,GI50,[7],2.02 µM
same,TGI,[7],17.8 µM
same,GI50,[9],5.55 µM
same,TGI,[9],12.4 µM
same,GI50,[10],7.02 µM
same,TGI,[10],15.4 µM
same,GI50,[11],5.23 µM
same,TGI,[11],11.3 µM
same,GI50,[12],1.75 µM
same,TGI,[12],7.12 µM
same,GI50,[13],2 µM
same,TGI,[13],8.31 µM
same,GI50,[50],1.06 µM
same,TGI,[50],2.5 µM
same,GI50,[14],6.96 µM
same,TGI,[14],21.8 µM
same,GI50,[15],2.82 µM
same,TGI,[15],10.6 µM
same,GI50,[58],2.38 µM
same,TGI,[58],15.7 µM
same,GI50,[16],1.66 µM
same,TGI,[16],8.39 µM
same,GI50,[17],7.02 µM
same,TGI,[17],15.4 µM
same,GI50,[18],1.67 µM
same,TGI,[18],> 50 µM
same,GI50,[19],2.15 µM
same,TGI,[19],7.97 µM
same,GI50,[51],1.02 µM
same,TGI,[51],2.11 µM
same,GI50,[20],2.51 µM
same,TGI,[20],9.79 µM
same,GI50,[21],5.51 µM
same,TGI,[21],12.7 µM
same,GI50,[22],1.69 µM
same,TGI,[22],7.82 µM
same,GI50,[23],1.49 µM
same,TGI,[23],5.65 µM
same,GI50,[24],3.1 µM
same,TGI,[24],9.58 µM
same,GI50,[26],2.96 µM
same,TGI,[26],20 µM
same,GI50,[53],7.29 µM
same,TGI,[53],19.5 µM
same,GI50,[27],1.07 µM
same,TGI,[27],2.22 µM
same,GI50,[28],5.3 µM
same,TGI,[28],18.8 µM
same,GI50,[29],8.79 µM
same,TGI,[29],28.2 µM
same,GI50,[30],1.09 µM
same,TGI,[30],2.36 µM
same,GI50,[54],1.81 µM
same,TGI,[54],7.84 µM
same,GI50,[31],6.6 µM
same,TGI,[31],13.3 µM
same,GI50,[32],7.62 µM
same,TGI,[32],> 50 µM
same,GI50,[33],6.06 µM
same,TGI,[33],14 µM
same,GI50,[34],1.33 µM
same,TGI,[34],3.6 µM
same,GI50,[55],1.44 µM
same,TGI,[55],5.84 µM
same,GI50,[35],6.2 µM
same,TGI,[35],16.6 µM
same,GI50,[36],7.24 µM
same,TGI,[36],14 µM
same,GI50,[37],1.72 µM
same,TGI,[37],6.23 µM
same,GI50,[38],4.74 µM
same,TGI,[38],13.5 µM
same,GI50,[39],5.62 µM
same,TGI,[39],11.9 µM
same,GI50,[40],5.27 µM
same,TGI,[40],11.9 µM
same,GI50,[42],2.41 µM
same,TGI,[42],9.12 µM
same,GI50,[43],5.53 µM
same,TGI,[43],12.5 µM
same,GI50,[44],1.2 µM
same,TGI,[44],6.22 µM
same,GI50,[59],1.91 µM
same,TGI,[59],> 50 µM
same,GI50,[45],4.67 µM
same,TGI,[45],12.7 µM
same,GI50,[46],2.75 µM
same,TGI,[46],20.8 µM
same,GI50,[47],4.36 µM
same,TGI,[47],15 µM
same,GI50,[48],1.93 µM
same,TGI,[48],13.7 µM
same,GI50,[56],7.22 µM
same,TGI,[56],18.3 µM
same,GI50,[57],3.83 µM
same,TGI,[57],10.9 µM
same,GI50,[49],2.57 µM
same,TGI,[49],10.3 µM
